US7399784B2, “Tocopherol and tocotrienol anti-obesity medicaments” (Children's Hospital & Research Center at Oakland, priority 2002, dated 2008)

Legend:
[1] = treatment of diabetes; Malinowski et al. 2000; cited from earlier work
adipocytes = test: Weight gain and adipocyte triglyceride accumulation in mice fed a high-fat diet; assay type: in vivo, BALB/c mice; details: food admixture 0.1%, 3%, 0.02% or 0.01%
Protocol: We evaluate weight gain and triglyceride accumulation in adipocytes in mice fed a high-fat diet. Six-week-old BALB/c mice are fed powdered chow with various tocopherols and tocotrienols and mixtures thereof, as 0.1%, 3%, 0.02%, or 0.01% food admixtures. For histological analysis of adipose and hepatic tissues and determination of adipocyte size, adipose tissue is removed from each animal and fixed in 10% formaldehyde/PBS and maintained at 4° C. until use. Fixed specimens are dehydrated, embedded in tissue-freezing medium and frozen in dry ice and acetone. White adipose tissue is cut into 10-μm sections, and the sections mounted on silanized slides. The adipose tissue is stained with hematoxylin and eosin (H&E). Mature white adipocytes are identified by their characteristic […] appearance. Total adipocyte areas are traced manually and analyzed with Win ROOF software (Mitani Co. Ltd., Chiba, Japan). White adipocyte areas are measured in 400 or more cells per mouse in each group according to methods previously described (Kubota, N. et al.1999, Mol. Cell. 4:597-609).

[2] = tested on: embryonic cell (C3H10T1/2); test: Adipocyte differentiation of C3H10T1/2 cells induced with insulin plus drugs; assay type: cell-based; details: differentiation induced with insulin plus indomethacin, troglitazone or 15-deoxy-delta(12,14)-prostaglandin-J2
Description: For these example, differentiation was induced in the presence of insulin with drugs, including indomethacin, and troglitazone, one of the anti-diabetes drugs of the thiazolidinedione family, as well as 15-deoxy-delta (12, 14)-prostaglandin-J2, a putative endogenous ligand for the peroxisome proliferator-activated receptor-gamma. Our results clearly indicate that tocopherols and tocotrienols inhibit adipogenesis.

leptin = details: healthy individuals; Ismermann et al. 1999; cited from earlier work
insulin-secreting cells = details: Sjoholm et al. 2000; cited from earlier work

| Molecule | weight gain and obesity [1] | triglyceride accumulation in adipocytes (adipocytes) | weight gain (adipocytes) | anti-adipogenesis activity (inhibition of differentiation to adipocytes) [2] | intracellular triglyceride accumulation [2] | leptin expression (leptin) | protection against functional inhibition by nitric oxide (insulin-secreting cells) |
| --- | --- | --- | --- | --- | --- | --- | --- |
| Cc1c(C)c2c(c(C)c1O)CCC(C)(COc1ccc(CC3SC(=O)NC3=O)cc1)O2 (stereo not drawn) [troglitazone] | commonly leads to weight gain and obesity |  |  |  |  |  |  |
| Cc1cc(O)cc2c1O[C@](C)(CCC[C@H](C)CCC[C@H](C)CCCC(C)C)CC2 [delta-T, delta-tocopherol] |  | reduced triglyceride accumulation in adipocytes | reduced weight gain | dose-dependent anti-adipogenesis activity | decrease intracellular triglyceride accumulation |  |  |
| Cc1c(C)c2c(c(C)c1O)CC[C@@](C)(CCC[C@H](C)CCC[C@H](C)CCCC(C)C)O2 [alpa-T, alpha-tocopherol, reference compound] |  |  |  | much less effective | much less effective | induces leptin expression |  |
| CC(C)=CCC/C(C)=C/CC/C(C)=C/CC[C@]1(C)CCc2cc(O)c(C)c(C)c2O1 [gamma-tocotrienol] |  | reduced triglyceride accumulation in adipocytes | reduced weight gain | dose-dependent anti-adipogenesis activity | decrease intracellular triglyceride accumulation |  |  |
| CC(C)=CCC/C(C)=C/CC/C(C)=C/CC[C@]1(C)CCc2cc(O)cc(C)c2O1 [delta-tocotrienol] |  | reduced triglyceride accumulation in adipocytes | reduced weight gain | dose-dependent anti-adipogenesis activity | decrease intracellular triglyceride accumulation |  |  |
| CN(CCOc1ccc(CC2SC(=O)NC2=O)cc1)c1ccccn1 (stereo not drawn) [rosiglitazone] | commonly leads to weight gain and obesity |  |  |  |  |  |  |
| Cc1c(O)cc2c(c1C)O[C@](C)(CCC[C@H](C)CCC[C@H](C)CCCC(C)C)CC2 [gamma-T, gamma-tocopherol] |  | reduced triglyceride accumulation in adipocytes | reduced weight gain | dose-dependent anti-adipogenesis activity | decrease intracellular triglyceride accumulation |  | partially protects |
| alpha-tocotrienol |  | reduced triglyceride accumulation in adipocytes | reduced weight gain | dose-dependent anti-adipogenesis activity | decrease intracellular triglyceride accumulation |  |  |
| CCc1ccc(CCOc2ccc(CC3SC(=O)NC3=O)cc2)nc1 (stereo not drawn) [proglitazone] | commonly leads to weight gain and obesity |  |  |  |  |  |  |
